From PubChem BioAssay (NCI)
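Where inhibition never reached the appropriate level, the endpoint shown equals the highest concentration tested. Otherwise, values were interpolated linearly from a five-concentration, 48-hour dose response in 96-well plates. GI50 = concentration required for 50% inhibition of growth. TGI is the concentration that stops growth completely.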

Experiments:
Experiment in all cases: growth of human tumour cells (NCI), 48 h
[1] = tested on: DU-145 prostate
[2] = tested on: MOLT-4 leukemia
[3] = tested on: MDA-MB-435
[4] = tested on: OVCAR-8 ovarian
[5] = tested on: HCC-2998 colon
[6] = tested on: NCI-H226 lung
[7] = tested on: U251 CNS
[8] = tested on: NCI/ADR-RES ovarian
[9] = tested on: ACHN renal
[10] = tested on: UACC-257 melanoma

Compound | GI50 [1] [µM] | GI50 [2] [µM] | TGI [2] [µM] | GI50 [3] [µM] | TGI [3] [µM] | GI50 [4] [µM] | TGI [4] [µM] | GI50 [5] [µM] | TGI [5] [µM] | GI50 [6] [µM] | TGI [6] [µM] | GI50 [7] [µM] | TGI [7] [µM] | GI50 [8] [µM] | TGI [8] [µM] | GI50 [9] [µM] | TGI [9] [µM] | GI50 [10] [µM] | TGI [10] [µM] | TGI [1] [µM]
COc1ccccc1Nc1nc(-c2cc3cccc(C(F)(F)F)c3oc2=O)cs1 | 0.263 | 0.5 | > 100 | 0.0297 | 0.164 | 0.301 | > 100 | 0.344 | > 47.7 | 0.601 | 56.3 | 0.11 | 29.3 | 0.0468 | 5.55 | 0.106 | > 100 | 1.71 | > 100 | 
O=Nc1c(-c2cccc([N+](=O)[O-])c2)nc2ncccn12 | 4.24 | 1.79 | 5.31 | 13.7 | 36.4 | 8.9 | 43.8 | 15.2 | 28.9 | 16.2 | 37 | 13.9 | 32.5 | 15.9 | 71.7 | 8.73 | 23.2 | 12.3 | 26.4 | 16.8
O=C1c2cc3c(cc2-c2c1c1ccc([N+](=O)[O-])cc1c(=O)n2CCCCl)OCO3 | 0.122 | 0.0528 | > 100 | 1.22 | > 100 | > 100 | > 100 | 0.489 | 5.43 | 0.409 | 9.09 | 0.0828 |  | 0.0743 |  | 0.0707 | 0.234 |  |  | > 100
COc1ccc2c(CNCCCCO)cc3cc4c(cc3c2c1)OCO4 | 1.33 | 0.263 | 3.94 | 0.982 | 3.54 | 0.341 | 6.68 | 1.66 | 6.57 | 0.638 | 1.62 | 1.85 | 7.29 | 1.45 | 8.12 | 0.891 | 3.7 | 0.823 | 2.88 | 7.09
CSC(=S)N/N=C(\C)c1ccccn1 | 0.465 | < 0.0145 | 0.975 | 0.407 | 16.6 | 0.203 | 13.5 | 0.509 | 16.2 | 0.335 | 3.45 | 0.199 | 13.6 | 0.0262 | 15.7 | 0.232 | 11.8 | 0.159 | 1.55 | 12.2
C=C1C(=O)O[C@H]2[C@H]1CC/C(COC(=O)CCC(=O)OC/C1=C/CC[C@@]3(C)O[C@H]3[C@H]3OC(=O)C(=C)[C@@H]3CC1)=C\CC[C@@]1(C)O[C@@H]21 | 1.71 | 0.561 | 2.8 | 1.84 | 4.65 | 2.75 | 10.4 | 2.13 | 4.4 | 2.46 | 11.7 | 2.78 | 9.18 | 14 | 40.5 | 0.753 | 2.03 | 1.52 | 3.39 | 3.53
C[n+]1c2ccccc2c(NC2CCNCC2)c2[nH]c3ccccc3c21 | 0.2 | 0.114 |  | 2.33 | 8.42 | 1.42 | 12.8 | 0.331 | 1.63 | 0.384 | 2.52 | 0.198 | 1.91 | > 100 | > 100 | 4.68 | 32.1 | 5.41 | 23.7 | 4.32
CN(C)CCn1cc(-c2ccc3c(Nc4ccc(CC(=O)Nc5cccc(F)c5)cc4)ncnc3c2)cn1 | 1.67 | 2.51 | > 10 | 2.86 | > 10 | 1.6 | 6.39 | 1.77 | 3.84 | > 10 | > 10 | 1.56 | 3.45 | > 10 | > 10 | 4.24 | > 10 | 1.84 | 5.68 | 3.51
O=C1/C(=C/c2ccc(O)cc2)CCC1CNc1ccc(Cl)cc1 (configuration not stated) |  |  | 6.45 |  | 17.3 |  | 7.1 |  | 14.8 |  | 25.8 |  | 21.3 |  | 20.1 |  | 11.6 |  | 11.7 | 26.2
O=C1c2cccc3cccc(c23)C(=O)N1CCCCOc1ccc(-c2nc3ccc(N4CCOCC4)cc3[nH]2)cc1 | 3.86 | 2.95 | > 100 | 2.04 | 4.54 | 6.21 | > 75.1 | 5.25 | > 47.8 | 25.6 | 47.6 | 1.53 | 4.56 | 10.3 | > 83.9 | 15.2 | 29.2 | 5.06 | 27.9 | 15.8
CCCCCCCCSC1=CC(=O)C(OC)=C(OC)C1=O | 7.23 | 1.87 | > 100 | 1.88 | 7.57 | 2.16 | 5.16 | 11.3 | 24.4 | 5.4 | 27.5 | 2.8 | 11.7 | 2.49 | 7.1 | 1.58 | 2.98 | 1.67 | 4.17 | 20.5
CCOc1ccc2c(c1)/C(=C\C=C\C1CC(C)C3CC(OCC)CCC3N1CC)CC(C)N2CC (configuration not stated) | 0.991 | 1.47 | 4.14 | 0.905 | 2.31 | 0.61 | 2.19 | 1.05 | 2.42 | 1.06 | 2.79 | 0.38 | 1.51 | 3.14 | > 100 | 1.43 | 2.95 | 0.795 | 2.15 | 2.25
Cc1ccccc1NC(=O)NC(CC(N)=O)c1ccc2c(c1)nc(-c1cccc(Oc3ccc(C(C)(C)C)cc3)c1)n2CCCN1CCCCC1C (configuration not stated) | 5.4 | 3.39 | 9.65 | 1.72 | 3.3 | 2.44 | 6.63 | 2.23 | 5.04 | 7.9 | 25.7 | 1.75 | 3.23 | 28 | > 85.9 | 9.08 | 22.3 | 1.86 | 3.49 | 13.6
Cn1c(=O)c(Cc2ccc(F)cc2F)cc2cnc(NC3CCOCC3)nc21 | > 25 | > 21.2 | > 25 | > 25 | > 25 | > 25 | > 25 | > 25 | > 25 | > 21.1 | > 25 | > 25 | > 25 | > 15.5 | > 25 | > 25 | > 25 | > 25 | > 25 | > 25
O=C(Nc1ccccc1Cl)c1ccc(NC2=C(Cl)C(=O)N(Cc3ccccc3)C2=O)cc1 | > 100 | 19.1 | 50.8 | 48.4 | > 100 | 18.7 | 36.9 | 13.7 | 26.6 | 32.5 | 92.3 | 38.4 | > 100 | 86.2 | > 100 | 37.6 | > 100 | 38.8 | > 100 | > 100
Oc1ccc2ccccc2c1/C=N\Nc1ccccn1 | 0.482 | 0.358 | > 100 | 0.752 | > 100 | 0.365 | > 60.4 | 4.13 | > 100 | 2.2 | > 41.9 | 0.427 | 97.3 | 0.281 | 33.3 | 0.331 |  | 1.72 | > 100 | 
Cn1cccc1-c1cc(-c2ccc(Br)cc2)nc(N)c1C#N | > 100 | > 100 | > 100 | > 100 | > 100 | > 100 | > 100 | > 100 | > 100 | 63.8 | > 100 | > 100 | > 100 | > 100 | > 100 | > 100 | > 100 | > 100 | > 100 | > 100
CC1=C(C)C(=O)C(C(C)C2=C(C)C(=O)C(C)=C(C)C2=O)=C(C)C1=O | 35.5 | 8.88 | 27.6 | 39.4 | > 100 | 33.3 | > 100 | 57.1 | > 100 | 58.3 | > 100 | 21.7 | > 100 | 17.9 | 52 | 24.5 | > 100 | 33.5 | > 100 | > 100
O=C1NC(=NCc2ccccn2)S/C1=C\c1ccc2ncccc2c1 | 9.81 | 11.3 | > 25 | 7.64 | > 21.9 | 14.4 | > 25 | 13.8 | > 25 | 15 | > 25 | 7.87 | > 25 | 16.9 | > 25 | 10.2 | > 25 | > 12.7 | > 25 | > 25
Cc1ccc(Cl)cc1Nc1nc(C(F)(F)F)ccc1C(=O)Oc1ccc(Cl)cc1 | 7.73 | 7.99 | 24.3 | 16.8 | 51.9 | 7.62 | 29 | 8.86 | 29.4 | 12.1 | 36.1 | 4.15 | 16.1 | 15.6 | 46.6 | 5.16 | 18 | 39.3 | > 100 | 24.8
COc1cc(/C=C/C(=O)c2ccc(Nc3nc(Nc4ccc(F)cc4)nc(Nc4ccc(F)cc4)n3)cc2)cc(OC)c1OC | > 100 | 1.93 | > 100 | 17.1 | > 100 | 1.94 | > 100 | 27.7 | > 100 | 3.8 | 29.3 | 7.92 | > 100 | 4.69 | > 100 | 21.2 | > 100 | 7.11 | 61.1 | > 100
O=C1c2cccnc2-c2nc(-c3ccc([N+](=O)[O-])cc3)cc3c2c1nc1ccccc13 | 2.21 | 53.5 | > 100 | 1.69 | 3.06 | 1.5 | 6.76 | 8 | 26.5 | 9.63 | 33.4 | 3.44 | > 100 | 2.44 | 10.3 | 5.03 | 30 | 2.21 | 7.32 | 4.88
O=C(/C=N/O)c1c(-c2ccccc2)[nH]c(-c2ccccc2)c1-c1ccccc1 |  |  | 31.1 |  | 28.3 |  |  |  | 58.1 |  | 83.4 |  | 32.3 |  | 25.5 |  | 43.4 |  | 35 | 12.3
C=C1C(=O)O[C@H]2[C@H]1CC/C(Cn1cc(CCC)nn1)=C\CC[C@@]1(C)O[C@@H]21 | 4.32 | 5.54 | 27.6 | 10.4 | 24.9 | 13.5 | 29.8 | 15.1 | 32.9 | 12.6 | 33.4 | 14.1 | 27.7 | 15.2 | 33.4 | 3.81 | 15.6 |  |  | 16
Fc1ccc(Nc2nc(Nc3ccc(-c4nc5ccccc5[nH]4)cc3)nc(N3CCCC3)n2)cc1 | 4.21 | 2.19 | 5.74 | 3.38 | 11.3 | 2.36 | 5.81 | 2.39 | 6.25 | 14.2 | 34.9 | 2.37 | 5.82 | 2.89 | 12.1 | 3.08 | 10.4 |  |  | 15.3
